Data reported in publication PMC5934670 (Nucleic Acids Research, 2018).

Tests used:
TorR = biological target: T1, TorR (Escherichia coli, UniProt P38684); assay: Genomic SELEX-chip, rise of specific DNA binding; details: phosphodonor, no TorS; phosphorylation itself not measured; covalent
T1 sequence (P38684 1-230): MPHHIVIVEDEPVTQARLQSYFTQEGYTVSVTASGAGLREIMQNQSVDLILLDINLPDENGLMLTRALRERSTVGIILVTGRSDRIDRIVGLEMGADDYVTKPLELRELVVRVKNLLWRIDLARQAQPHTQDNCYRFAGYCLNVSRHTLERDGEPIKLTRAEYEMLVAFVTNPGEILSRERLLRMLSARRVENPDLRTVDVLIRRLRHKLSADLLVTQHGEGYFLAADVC

KdpE = biological target: T2, KdpE (Escherichia coli, UniProt P21866); assay: Genomic SELEX-chip, rise of specific DNA binding; details: phosphodonor, no KdpD; phosphorylation itself not measured; covalent
T2 sequence (P21866 1-225): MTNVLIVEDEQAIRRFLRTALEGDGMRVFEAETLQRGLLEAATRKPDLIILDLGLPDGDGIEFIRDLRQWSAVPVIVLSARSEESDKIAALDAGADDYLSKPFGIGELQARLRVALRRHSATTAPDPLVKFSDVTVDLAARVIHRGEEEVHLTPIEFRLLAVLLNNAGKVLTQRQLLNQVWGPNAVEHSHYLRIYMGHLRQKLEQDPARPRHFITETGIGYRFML

LacI = LacI (Escherichia coli, UniProt P03023); assay: Genomic SELEX-chip, loss of DNA binding; details: inducer; increasing IPTG; lac operator DNA
NanR = biological target: T3, NanR (Escherichia coli, UniProt P0A8W0); assay: Genomic SELEX-chip, change of DNA-binding specificity; details: effector; genomic DNA library
T3 sequence (P0A8W0 1-263): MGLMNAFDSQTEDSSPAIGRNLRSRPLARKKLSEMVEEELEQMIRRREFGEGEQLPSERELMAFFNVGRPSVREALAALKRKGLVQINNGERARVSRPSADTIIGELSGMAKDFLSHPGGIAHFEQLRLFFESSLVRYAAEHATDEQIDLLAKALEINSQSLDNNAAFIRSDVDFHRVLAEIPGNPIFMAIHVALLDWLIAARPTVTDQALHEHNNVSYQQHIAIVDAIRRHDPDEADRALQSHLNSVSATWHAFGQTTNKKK

Sequence of LacI (P03023 whole entry): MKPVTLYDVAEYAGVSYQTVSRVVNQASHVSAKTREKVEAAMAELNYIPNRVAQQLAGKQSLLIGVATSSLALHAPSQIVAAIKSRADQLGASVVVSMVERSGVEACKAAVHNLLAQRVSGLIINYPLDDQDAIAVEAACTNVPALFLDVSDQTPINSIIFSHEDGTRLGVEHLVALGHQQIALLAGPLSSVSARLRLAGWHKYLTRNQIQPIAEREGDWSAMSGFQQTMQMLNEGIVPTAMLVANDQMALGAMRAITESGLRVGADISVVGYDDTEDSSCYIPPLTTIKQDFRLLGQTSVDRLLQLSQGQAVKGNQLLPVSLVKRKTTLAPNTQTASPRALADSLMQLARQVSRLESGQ

SMILES: CC(=O)OP(=O)(O)O [AcP]
- Genomic SELEX-chip, rise of specific DNA binding (TorR): the level of TorR binding to this target was higher in the presence of AcP
- Genomic SELEX-chip, rise of specific DNA binding (KdpE): The binding affinity to this single target increased in the presence of AcP

SMILES: CC(C)S[C@@H]1O[C@H](CO)[C@H](O)[C@H](O)[C@H]1O [IPTG]
- Genomic SELEX-chip, loss of DNA binding (LacI): level of LacI binding at the lacZ promoter region decreased concomitant with the increased addition of IPTG

SMILES: CC(=O)N[C@H]1[C@H]([C@H](O)[C@H](O)CO)OC(O)(C(=O)O)C[C@@H]1O (stereo partly shown) [Neu5Ac]
- Genomic SELEX-chip, change of DNA-binding specificity (NanR): The binding of NanR to these non-specific sites disappeared in the presence of Neu5Ac
